pIC50: −log10 of the molar value.
What was measured:
[1] = biological target: T1, Recombinant human His-tagged Kat6a protein (amino acids 194-810) (Homo sapiens, UniProt Q92794); assay: Kat6a activity assay (TR-FRET, acetylation of Histone-H4-derived peptide); format: biochemical; conditions: 60 mins at 22° C., 220 nM H4 peptide, 600 nM Acetyl Coenzyme A, read-out: KAT6A - DPF/HAT domain IC50 [mol/l] (arithmetic mean)
T1 construct: Kat6a protein (amino acids 194-810); His

[2] = biological target: T2, Recombinant human GST-tagged Kat6b protein (431-end) (Homo sapiens, UniProt Q8WYB5); assay: Kat6b activity assay (TR-FRET, acetylation of Histone-H4-derived peptide); format: biochemical; conditions: 30 mins at 22° C., 500 nM H4 peptide, 600 nM Acetyl Coenzyme A, read-out: KAT6B activity assay IC50 [mol/l] (arithmetic mean)
T2 construct: Kat6b protein (431-end, N-terminal GST-tag); GST (N)
T2 sequence (Q8WYB5 431-2073): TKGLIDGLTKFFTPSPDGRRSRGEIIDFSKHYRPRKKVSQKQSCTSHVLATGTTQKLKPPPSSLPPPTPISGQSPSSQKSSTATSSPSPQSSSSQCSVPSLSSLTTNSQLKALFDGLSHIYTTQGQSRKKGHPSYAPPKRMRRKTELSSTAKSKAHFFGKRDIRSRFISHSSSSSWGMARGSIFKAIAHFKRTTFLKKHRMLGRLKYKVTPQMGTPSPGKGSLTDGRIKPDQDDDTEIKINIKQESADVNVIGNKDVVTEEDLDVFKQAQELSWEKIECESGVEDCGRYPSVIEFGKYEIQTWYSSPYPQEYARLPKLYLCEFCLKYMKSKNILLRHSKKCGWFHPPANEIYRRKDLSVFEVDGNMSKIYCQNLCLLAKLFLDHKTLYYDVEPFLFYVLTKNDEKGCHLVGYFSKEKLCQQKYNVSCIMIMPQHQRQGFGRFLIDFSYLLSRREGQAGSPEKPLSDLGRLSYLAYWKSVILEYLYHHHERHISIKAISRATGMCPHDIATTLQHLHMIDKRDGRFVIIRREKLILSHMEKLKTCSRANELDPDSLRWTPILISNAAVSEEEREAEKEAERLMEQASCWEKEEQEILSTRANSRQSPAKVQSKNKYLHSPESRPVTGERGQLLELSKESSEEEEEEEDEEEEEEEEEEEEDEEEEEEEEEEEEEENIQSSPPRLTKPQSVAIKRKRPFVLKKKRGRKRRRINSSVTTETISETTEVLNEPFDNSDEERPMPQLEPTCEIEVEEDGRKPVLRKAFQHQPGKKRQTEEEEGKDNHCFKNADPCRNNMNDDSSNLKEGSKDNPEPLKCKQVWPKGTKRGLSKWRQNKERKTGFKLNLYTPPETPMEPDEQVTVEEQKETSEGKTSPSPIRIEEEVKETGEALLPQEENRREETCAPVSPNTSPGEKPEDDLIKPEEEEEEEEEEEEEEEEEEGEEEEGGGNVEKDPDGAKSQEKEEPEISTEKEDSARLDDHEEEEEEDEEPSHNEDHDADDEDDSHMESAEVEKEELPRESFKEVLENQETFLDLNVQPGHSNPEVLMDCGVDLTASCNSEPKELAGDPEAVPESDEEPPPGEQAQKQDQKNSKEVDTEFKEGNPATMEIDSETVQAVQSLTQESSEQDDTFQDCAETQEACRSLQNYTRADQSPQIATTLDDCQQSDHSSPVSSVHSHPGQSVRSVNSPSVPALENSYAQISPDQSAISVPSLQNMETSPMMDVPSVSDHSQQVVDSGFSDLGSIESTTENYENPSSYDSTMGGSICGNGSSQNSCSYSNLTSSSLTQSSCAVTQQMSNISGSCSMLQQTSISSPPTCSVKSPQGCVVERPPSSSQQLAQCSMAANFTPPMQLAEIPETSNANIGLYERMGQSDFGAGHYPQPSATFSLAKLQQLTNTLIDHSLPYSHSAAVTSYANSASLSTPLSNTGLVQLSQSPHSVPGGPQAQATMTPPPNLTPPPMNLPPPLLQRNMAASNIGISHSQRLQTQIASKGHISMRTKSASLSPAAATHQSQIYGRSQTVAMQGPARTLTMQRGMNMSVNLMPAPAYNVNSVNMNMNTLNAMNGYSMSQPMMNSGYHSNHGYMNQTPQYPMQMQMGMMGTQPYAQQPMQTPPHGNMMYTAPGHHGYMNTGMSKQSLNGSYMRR
Experimental: Kat6b inhibitory activities of the compounds described in the present invention were quantified using a Fluorescence Resonance Energy Transfer (TR-FRET) assay which measures acetylation of a synthetic, biotinylated Histone-H4-derived peptide by the enzyme.
In this case 50 nl DMSO were used instead of compounds. […] IC50 values were determined by regression analysis based on a 4 parameter equation (minimum, maximum, ICM, Hill; Y=Max+(Min−Max)/(1+(X/ICso) Hill) using the Screener Software (Genedata).

[3] = system: ESR1 transcription in MVLN cells; assay: MVLN reporter assay: repression of ESR1 transcription (luciferase signal); format: cell-based; conditions: Homo sapiens, MVLN, 24 h, luciferase signal after 24 h, read-out: MVLN reporter assay, IC50 [M] (arithmetic mean)
In short: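 To control for cell loss, Alamar Blue (2 h, 530/590 nm) precedes the 24 h luciferase measurement. The reporter is an ERE from the Xenopus vitellogenin A2 gene driving luciferase, stably transfected into ER-expressing MVLN cells; duplicate samples.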

ZR-75-1 cells = assay: ZR-75-1 proliferation assay; format: cell-based; conditions: Homo sapiens, ZR-75-1, 144 h, Alamar Blue, read-out: ZR75-1 proliferation assay, EC50 [M] (arithmetic mean)
In short: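 ZR-75-1 cells (focal KAT6A amplification), 3000 per well in RPMI 1640 with 2.5% FBS, were exposed to compound in triplicate for 144 h at 37 °C, 5% CO2. Viability read by Alamar Blue fluorescence at 590 nm after 2 h.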

LCLC97TM1 = LCLC97TM1 proliferation assay; format: cell-based; conditions: Homo sapiens, LCLC-97TM1, LCLC97TM1; read-out: LCLC97TM1 proliferation assay; EC50 [M] (arithmetic mean)
MDA-MB-436 cells = assay: MDA-MB-436 proliferation assay (negative control cell line); format: cell-based; conditions: Homo sapiens, 144 h, Alamar Blue, read-out: MDA-MB-436 proliferation assay, EC50 [M] (arithmetic mean)
In short: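 MDA-MB-436 cells (KAT6A deletion, low KAT6A protein) seeded at 3000 cells/well in DMEM/Ham's F12 with 2.5% FBS, treated in triplicate for 144 h at 37° C, 5% CO2. Viability read by Alamar Blue fluorescence at 590 nm after 2 h.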

T1 sequence (Q92794 194-810): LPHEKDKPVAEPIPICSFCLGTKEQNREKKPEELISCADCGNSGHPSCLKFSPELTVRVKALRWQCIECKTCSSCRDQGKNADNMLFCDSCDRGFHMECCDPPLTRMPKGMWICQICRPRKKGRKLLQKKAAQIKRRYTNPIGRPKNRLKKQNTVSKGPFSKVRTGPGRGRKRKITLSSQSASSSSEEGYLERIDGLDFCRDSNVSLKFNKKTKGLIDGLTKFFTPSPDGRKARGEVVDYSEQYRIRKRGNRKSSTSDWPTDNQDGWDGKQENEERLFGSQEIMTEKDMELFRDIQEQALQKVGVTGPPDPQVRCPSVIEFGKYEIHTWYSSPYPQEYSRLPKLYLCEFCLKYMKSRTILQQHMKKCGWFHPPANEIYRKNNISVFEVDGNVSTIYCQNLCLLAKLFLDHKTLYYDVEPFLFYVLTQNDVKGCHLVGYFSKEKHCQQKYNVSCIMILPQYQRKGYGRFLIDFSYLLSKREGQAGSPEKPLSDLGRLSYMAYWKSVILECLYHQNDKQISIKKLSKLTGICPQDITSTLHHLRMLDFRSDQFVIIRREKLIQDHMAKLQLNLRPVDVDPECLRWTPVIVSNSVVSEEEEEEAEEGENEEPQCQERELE

Row | Compound | pIC50 [1] | pIC50 [2] | IC50 [3] | EC50 (ZR-75-1 cells) | EC50 (LCLC97TM1) | EC50 (MDA-MB-436 cells)
1 | O=C(NS(=O)(=O)c1ccccc1-c1ccccc1)c1cc2ccc(N3CCC3)cc2o1 [Example 26, 6-(Azetidin-1-yl)-N-([1,1′-biphenyl]-2-sulfonyl)-1-benzofuran-2-carboxamide] | 6.84 | 6.53 | 3.85e-07 M | 5.06e-07 M | 3.9e-06 M | > 2e-05 M
2 | Cc1ccc2cccc(S(=O)(=O)NC(=O)c3cc4c(F)cc(N5CC(F)C5)cc4o3)c2n1 [Example 152, 4-Fluoro-6-(3-fluoroazetidin-1-yl)-N-(2-methylquinoline-8-sulfonyl)-1-benzofuran-2-carboxamide] | 7.86 | 7.69 | 3.69e-08 M | 7.66e-08 M | 1.63e-07 M | > 2e-05 M
3 | CCOc1ccccc1S(=O)(=O)NC(=O)c1cc2ccc(N3CC(F)C3)cc2o1 [Example 107, N-(2-Ethoxybenzene-1-sulfonyl)-6-(3-fluoroazetidin-1-yl)-1-benzofuran-2-carboxamide] | 6.56 | 6.07 | 1.33e-07 M | 4.1e-07 M | 9.16e-07 M | –
4 | CC(C)c1cccnc1S(=O)(=O)NC(=O)c1cc2c(F)cc(N3CCC3)cc2o1 [Example 79, 6-(Azetidin-1-yl)-4-fluoro-N-[3-(propan-2-yl)pyridine-2-sulfonyl]-1-benzofuran-2-carboxamide] | 8.02 | 7.87 | 2.1e-08 M | 3.61e-08 M | 3.9e-08 M | > 2e-05 M
5 | CC(C)c1ccc(OCc2ccccc2)c(S(=O)(=O)NC(=O)c2cc3c(F)cc(N4CCC4)cc3o2)c1 [Example 213, 6-(azetidin-1-yl)-N-(2-benzyloxy-5-isopropyl-phenyl)sulfonyl-4-fluoro-benzofuran-2-carboxamide] | 8.21 | 7.83 | 3.31e-08 M | 1.17e-07 M | 1.52e-07 M | 1.41e-05 M
6 | CC(C)c1ccc(OCC2CC2(F)F)c(S(=O)(=O)NC(=O)c2cc3c(F)cc(N4CCC4)cc3o2)c1 (racemic) [Example 231, 6-(Azetidin-1-yl)-N-((2-((2,2-difluorocyclopropyl)methoxy)-5-isopropylphenyl)sulfonyl)-4-fluorobenzofuran-2-carboxamide (rac)] | 8.37 | 7.54 | 1.83e-08 M | 1.58e-07 M | 1.99e-07 M | > 2e-05 M
7 | O=C(NS(=O)(=O)c1ccccc1OC1CC1)c1cc2c(F)cc(N3CCC3)cc2o1 [Example 131, 6-(Azetidin-1-yl)-N-[2-(cyclopropyloxy)benzene-1-sulfonyl]-4-fluoro-1-benzofuran-2-carboxamide] | 7.63 | 7.63 | 3.83e-08 M | 2.09e-07 M | 7.53e-08 M | > 2e-05 M
8 | COc1ccc(C(C)(C)C)cc1S(=O)(=O)NC(=O)c1cc2c(F)cc(N3CC(F)C3)cc2o1 [Example 150, N-(5-tert-butyl-2-methoxybenzene-1-sulfonyl)-4-fluoro-6-(3-fluoroazetidin-1-yl)-1-benzofuran-2-carboxamide] | 8.37 | 8.01 | 5.97e-09 M | 5.78e-08 M | 4.58e-08 M | > 2e-05 M
9 | CCOc1ccc(C(C)CC)cc1S(=O)(=O)NC(=O)c1cc2c(F)cc(N3CCC3)cc2o1 (racemic) [Example 207, 6-(Azetidin-1-yl)-N-[(5-sec-butyl-2-ethoxyphenyl)sulfonyl]-4-fluoro-1-benzofuran-2-carboxamide (rac)] | 8.73 | 8.25 | 9.04e-09 M | 1.03e-07 M | 4.29e-08 M | > 2e-05 M
10 | CC(C)c1ccc(OCC2CC2)c(S(=O)(=O)NC(=O)c2cc3c(F)cc(N4CCC4)cc3o2)c1 [Example 214, 6-(azetidin-1-yl)-N-[2-(cyclopropylmethoxy)-5-isopropyl-phenyl]sulfonyl-4-fluoro-benzofuran-2-carboxamide] | 8.41 | 7.69 | 2.43e-08 M | 4.47e-07 M | 5.77e-07 M | –

From US20240279207A1, “SUBSTITUTED ACYL SULFONAMIDES FOR TREATING CANCER” (The Broad Institute, Inc., priority 2020, published 2024)
